According to ChEMBL document CHEMBL1156829 (Proc Natl Acad Sci U S A, 2008):

Tests used:
[1] = NOVARTIS: Cytotoxicity against human hepatocellular carcinoma cell line (Huh7); format: toxicity, cell-based, Huh-7; details: Huh7 cells (hepatocellular carcinoma cell line)
Plasmodium falciparum [2] = assay: NOVARTIS: Inhibition of Plasmodium falciparum 3D7 (drug-susceptible) proliferation in erythrocyte-based infection assay; format: functional, organism-based; details: Plasmodium falciparum, 3D7
Plasmodium falciparum [3] = assay: NOVARTIS: Inhibition of Plasmodium falciparum W2 (drug-resistant) proliferation in erythrocyte-based infection assay; format: functional, organism-based; details: Plasmodium falciparum, W2; read-out: EC50

| Structure (SMILES) | CC50 [1] | EC50 (Plasmodium falciparum [2]) | EC50 (Plasmodium falciparum [3]) |
| --- | --- | --- | --- |
| CCCNC(=O)c1ccc(OC2CCN(CC(c3ccccc3)c3ccccc3)CC2)c(OC)c1 | > 10 µM | 614 nM | 392 nM |
| COc1cc(OC)cc(C(=O)NCc2n[nH]c(=S)n2-c2ccc(Br)cc2)c1 | > 100 µM | 325 nM | 252 nM |
| O=C(O)c1cccc(N2N=C(c3ccccc3)CC2=O)c1 | > 100 µM | > 12500 nM | > 9630 nM |
| CC1(C)CC(NC(=O)C(=O)NC2CC(C)(C)N(O)C(C)(C)C2)CC(C)(C)N1O | > 10 µM | > 1300 nM | > 784 nM |
| Cc1ccc(-n2c(SCc3cccc4ccccc34)nc3sc4c(c3c2=O)CCN(C)C4)cc1 | > 100 µM | > 6520 nM | 3300 nM |
| COC1=CC(C)=C[C@@H](C)[C@@H](O)[C@H](C)CC(C)=CC=C[C@H](OC)[C@@H](C(C)C(O)[C@H](C)[C@@]2(O)C[C@@H](O)[C@H](C)[C@@H](C(C)C)O2)OC1=O (some centres undefined) | > 10 µM | 1490 nM | 11.3 nM |
| CCOC(=O)C1=C(C)NC2=C(C(=O)CC(c3ccc(OC)c(OC)c3)C2)C1c1ccc(Cl)cc1Cl (centres undefined) | > 100 µM | 25.4 nM | 11.6 nM |
| COc1cc(OC)cc(C(=O)N2CCN(Cc3cccc(Br)c3)CC2)c1 | > 100 µM | > 12500 nM | 5920 nM |
| CC(C)CN(CC(O)CN(CCN1CCOCC1)S(=O)(=O)Cc1ccccc1)C(=O)C1CCCN1C(=O)OC(C)(C)C (centres undefined) | > 10 µM | > 1130 nM | > 1250 nM |
| NC12CC3CC(C1)CC(SSC14CC5CC(CC(N)(C5)C1)C4)(C3)C2 | 1.96 µM | 208 nM | 191 nM |
| C=CC1(O)CN2CCC1CC2[C@@H](O)c1ccnc2ccc(OC)cc12 (some centres undefined) | > 10 µM | 105 nM | 264 nM |
| COc1ccc2[nH]cc(CCNC(=O)Oc3ccccc3)c2c1 | > 10 µM | > 1290 nM | 604 nM |
| CSc1nc(SC)c2c3c(sc2n1)CN(C)CC3 | > 100 µM | 750 nM | 881 nM |
| COc1ccc(CNc2cc(-c3ccc(F)c(F)c3)nc3ccnn23)cc1 | > 100 µM | 675 nM | 687 nM |
| COC(=O)c1cccc(-c2cc(Cl)c3c(c2)CC(CNC(=O)c2c(C)noc2C)O3)c1 (centres undefined) | 75.9 µM | 881 nM | 786 nM |
| O=c1c2ccccc2nc2n1CCN2Cc1ccc(Cl)cc1 | > 100 µM | 1610 nM | 1630 nM |
| CCN1CCN(Cc2c(O)ccc3c(=O)c(Oc4cccc(C)c4)c(C(F)(F)F)oc23)CC1 | > 100 µM | 1130 nM | 161 nM |
| COc1ccc(OC)c(-c2ccc(O)c(CNCCc3ccc(Cl)cc3)c2)c1 | > 10 µM | 987 nM | 749 nM |
| Cc1nc2ccc(Cl)cc2c(O)c1I | > 100 µM | 3470 nM | 714 nM |
| CN(C)c1ccc(/C=C/c2cccc(/C=C/c3ccc(N(C)C)cc3)[n+]2C)cc1 | 2.53 µM | 210 nM | 296 nM |
| COc1cccc2c1OCC(C(=O)Nc1ccc(C)cc1)=C2 | 54.7 µM | 461 nM | > 12500 nM |
| C(=NNc1nc2ccccc2[nH]1)c1ccc2c(c1)OCO2 | > 100 µM | 184 nM | 289 nM |
| COc1ccc2nc(C)cc(NN=Cc3cccs3)c2c1 | 18.4 µM | 158 nM | 134 nM |

| Structure (SMILES) | CC50 [1] | EC50 (Plasmodium falciparum [2]) | EC50 (Plasmodium falciparum [3]) |
| --- | --- | --- | --- |
| Cc1cccc(C)c1NC(=O)C(O)c1ccc(Cl)cc1Cl (centres undefined) | > 10 µM | > 1250 nM | 2200 nM |
| CCCCOc1ccc(C(=O)N(C)CCCNc2ccnc3cc(Cl)ccc23)cc1 | 4.79 µM | 605 nM | 69 nM |
| COc1ccc(-c2cc(=O)c3c(O)cc(OC4OC(COC5OC(C)C(O)C(O)C5O)C(O)C(O)C4O)cc3o2)cc1 (centres undefined) | > 100 µM | > 12500 nM | 4420 nM |
| CCOC(=O)N1CCC(n2c(SCC(=O)N3CCCCCC3)nc3ccccc3c2=O)CC1 | > 100 µM | 7340 nM | 1090 nM |
| CCc1ccc(NC(=O)C2c3ccccc3C(=O)N(CC(C)C)C2c2cccs2)cc1 (centres undefined) | > 100 µM | 2300 nM | 607 nM |
| CN(C)CCNC(=O)COc1ccc(-c2nc3ccccc3s2)cc1CN(C)C | > 10 µM | 622 nM | 557 nM |
| COc1cccc(CCNC(=O)c2ccc(OC3CCN(CC(c4ccccc4)c4ccccc4)CC3)c(OC)c2)c1 | > 10 µM | 1070 nM | 84.5 nM |
| COc1cc(-c2nc(-c3ccc(C)c(C)c3)c(-c3ccc(C)c(C)c3)[nH]2)cc(OC)c1O | 61.2 µM | 93 nM | 132 nM |
| Cc1ccc(CNC(=O)CCCCCn2c(SCc3cccc([N+](=O)[O-])c3)nc3ccsc3c2=O)cc1 | > 100 µM | 6280 nM | 1600 nM |
| O=C(CCN1C(=O)C2CCCCC2C1=O)N1CCc2ccccc2C1 (centres undefined) | > 100 µM | > 4850 nM | 7490 nM |
| C[C@H]1C[C@H](C)C(=O)[C@@H]([C@@H](O)CC2CC(=O)NC(=O)C2)C1 | 0.304 µM | 21.6 nM | 67.5 nM |
| CCOC(=O)c1c(C)n(-c2ccccc2)c2ccc(OC(=O)c3ccccc3NC(=O)CC)cc12 | > 100 µM | 1060 nM | 1530 nM |
| Cc1nc(C23CC4CC(CC(C4)C2)C3)cs1 | > 100 µM | > 12500 nM | 1860 nM |
| CC1CC2CCC(O2)C(C)C(=O)O[C@H](C)CC2CCC(O2)C(C)C(=O)OC(C)CC2CCC(O2)C(C)C(=O)O[C@H](C)CC2CCC(O2)C(C)C(=O)O1 (some centres undefined) | > 6.25 µM | 645 nM | 699 nM |
| Cc1ccc(F)cc1NC(=O)c1cc(Cl)ccc1Nc1ccccc1 | > 100 µM | 191 nM | 115 nM |
| COc1ccc(NC(=O)NCc2cccn2Cc2ccc(F)cc2)cc1OC | > 10 µM | 1070 nM | 661 nM |
| C[n+]1ccc(/C=C/c2ccc(Br)cc2)cc1 | > 10 µM | 455 nM | 313 nM |
| CC(C)(C)c1ccc2[nH]c3c(c2c1)CCCC3=NO | 20.9 µM | 5020 nM | 831 nM |
| CCCCNC(=O)C(CC)Sc1nnc(-c2ccc(C)cc2)c(-c2ccc(C)cc2)n1 (centres undefined) | > 100 µM | 471 nM | 2050 nM |
| CCN(CC)S(=O)(=O)c1ccc(-c2csc(=Nc3cccc4ccccc34)n2C)cc1 | > 10 µM | 60.9 nM | > 1220 nM |
| COc1ccc(/C=C\c2nc(=O)c3ccccc3o2)cc1 | > 10 µM | 697 nM | 587 nM |
| O=C(NN=CC(Br)=Cc1ccccc1)c1ccc(F)cc1 | > 10 µM | 981 nM | 618 nM |
| O=C(O)CCCCCNc1ncnc2sc3c(c12)CCCC3 | > 10 µM | > 1250 nM | 869 nM |

| Structure (SMILES) | CC50 [1] | EC50 (Plasmodium falciparum [2]) | EC50 (Plasmodium falciparum [3]) |
| --- | --- | --- | --- |
| O=C(CCl)NCCOc1ccc(Cl)cc1Cl | 13 µM | 538 nM | 511 nM |
| COc1cc(C=C(C#N)c2nc3ccccc3[nH]2)ccc1OCc1ccc(Cl)cc1 | > 100 µM | 763 nM | 1570 nM |
| Cc1onc(O)c1CC(N)C(=O)O (centres undefined) | > 10 µM | 158 nM | 302 nM |
| Cc1cc(N)c2ccccc2[n+]1CCCCCCCCCC[n+]1c(C)cc(N)c2ccccc21 [DEQUALINIUM CHLORIDE] | 31 µM | 61.4 nM | 19.7 nM |
| O=[N+]([O-])c1ccc2nc(Nc3ccc(Cl)c(Cl)c3)c(Nc3ccc(Cl)c(Cl)c3)nc2c1 | > 85.4 µM | 7230 nM | 7040 nM |
| Nc1ccc(-c2cc(N)n(-c3ccc(Oc4ccccc4)c(S(=O)(=O)O)c3)n2)cc1 | > 10 µM | > 921 nM | > 1250 nM |
| COc1ccc(C2CC(=O)C3=C(C2)NC(C)=C(C(=O)OC(C)C)C3c2ccc([N+](=O)[O-])cc2)cc1OC (centres undefined) | > 100 µM | 31.9 nM | 31.8 nM |
| Cc1c(Cc2ccccc2)sc(N=Cc2ccc(Br)s2)c1C(N)=O | > 10 µM | 445 nM | 314 nM |
| O=C1C(NC2CCCCC2)=C(N2CCOCC2)C(=O)c2ccccc21 | 46.1 µM | 139 nM | 116 nM |
| Cc1ccccc1OCCSc1nc2ccc(NC(=O)c3cccs3)cc2s1 | > 100 µM | 497 nM | 1580 nM |
| CC1(C)Cc2c(sc(NC(=O)CCl)c2C#N)CO1 | 20.5 µM | 2040 nM | 2080 nM |
| Cc1ccn2c(NC(C)(C)CC(C)(C)C)c(-c3ccccc3OC(=O)C3CCCC3)nc2c1 | > 10 µM | 1010 nM | < 8.29 nM |
| Cc1cccc(NC(=O)c2ccc3ccccc3n2)n1 | > 10 µM | > 547 nM | > 1090 nM |
| COc1cccc(CCN2Cc3ccc(C(=O)NC(C)C)cc3N=C2c2ccc(C)cc2)c1 | > 10 µM | 938 nM | 680 nM |
| O=c1[nH]c2cc(Cl)c(Br)nc2[nH]1 | > 10 µM | > 1250 nM | 1180 nM |
| Cc1nn(-c2cc(N3CCOCC3)ccc2[N+](=O)[O-])c(=O)c2ccccc12 | > 10 µM | > 995 nM | > 1250 nM |
| CCN1c2ccccc2N=C2C=CC(N)=CC21 (centres undefined) | > 10 µM | 59.6 nM | 278 nM |
| O=C(NC1CC1)c1ccc(CSCc2ccccc2Cl)o1 | > 100 µM | 503 nM | 562 nM |
| CCOC(=O)C1=C(C)NC2=C(C(=O)CC(c3ccccc3)C2)C1c1ccccc1Cl (centres undefined) | > 100 µM | 251 nM | 34.9 nM |
| COc1cccc(-c2ccc(O)c(CN(C)CC(O)c3ccccc3)c2)n1 (centres undefined) | > 10 µM | 246 nM | 90.4 nM |
| c1ccc(OCCOc2ccc(Nc3c4ccccc4nc4ccccc34)cc2)cc1 | 6.12 µM | 505 nM | 347 nM |
| COc1ccc(C(=O)C[n+]2ccc3c(c2)nc(-c2ccc(OC)cc2OC)n3C)cc1 | > 100 µM | 920 nM | 512 nM |
